# Measurements as given in US20250333733A1, “NOVEL TARGETS AGAINST OVARIAN CANCER” (UNIVERSITY OF PUERTO RICO, priority 2022, published 2025).
# Columns and labels:
# [1] = test system: CASC10; experiment: RT-qPCR of CASC10 expression after siRNA transfection in OVCAR3CIS cells; type: cell-based; conditions: vs NC-siRNA
# Experimental: SiRNA ON-TARGET plus SMARTpool (a mixture of 4 siRNA as a single tube) and a negative control siRNA (NC-siRNA) (Sigma-Aldrich) were used for transfection studies. CASC10, was targeted by using two siRNAs targeting different regions of the CASC10 RNA (e.g., CASC10-siRNA (1) and CASC10-siRNA (2)). OVCAR3CIS or SKOV3ip1CIS cells were seeded into 12-well plates at 3.0×10^4 cells/mL. The next day, siRNAs were mixed with HiPerfect transfection reagent (Qiagen, Valencia, CA) at a 1:2 ratio (SIRNA: HiPerfect) in serum and antibiotic-free Opti-MEM medium (Gibco) and added to the cells. After twenty-four hours the media was replaced by regular culture media, and cells were cultured and used for further experiments. To assess siRNA transfection efficiency, cells were collected 24 hours after siRNA transfection.
# A custom-made 384-well plate containing pre-designed forward and reverse primers was purchased from Bio-Rad (CA, USA). Total RNA was isolated from OVCAR3 and OVCAR3CIS cells using the GenElute Mammalian Total RNA Mini Kit (Millipore-Sigma, MO, USA) following the manufacturer's instructions. […] Fold-changes and cycle threshold (Ct) values were calculated by the instrument's internal software relative to OVCAR3 cells and normalized to B-actin along with controls for gDNA, PCR reaction, RT reaction, and RNA quality.
# [2] = test system: OVCAR3CIS; experiment: Cell cycle progression by flow cytometry; type: cell-based; conditions: 48 hours post-transfection
# Experimental: To assess cell cycle progression, OVCAR3CIS (3.0×10^4 cells/mL) or SKOV3ip1CIS (3.5×10^4 cells/mL) were seeded into 10 cm Petri dishes and transfected with NC-siRNA or CASC10-siRNA (2). Forty-eight hours later, attached cells were collected, washed in ice-cold PBS, fixed with 70% cold ethanol, and stored at 4° C. Cells were then washed with ice-cold PBS, resuspended in propidium iodide (PI)/RNase Staining Buffer, incubated in the dark for 15 minutes at room temperature, and then analyzed by flow cytometry in BD C6 Accuri (CA, USA). Accuri's software was used to determine the percentage of cells in each cell cycle phase.
substance,measurement,setting,value
"CASC10-siRNA (2): siRNA targeting CASC10 RNA, SEQ ID NO 3 and 4: 5′ GACUCUUGGAUCCAAGUUU(dT)(dT) 3′ / 5′ AAACUUGGAUCCAAGAGUC(dT)(dT) 3′ (chain 1 GACUCUUGGAUCCAAGUUUNN; chain 2 AAACUUGGAUCCAAGAGUCNN; 3' dTdT overhangs, chemistry not fully specified)",decrease of CASC10 expression,[1],57%
same,cell cycle progression,[2],cell cycle arrest in the G0/G1 to S phase
